Reference: ChEMBL document CHEMBL2331397, “Indoleamine 2,3-dioxygenase inhibitory activity of derivatives of marine alkaloid tsitsikammamine A” (Bioorg Med Chem Lett, 2013)
Activity calls are given as the source filed them. The rule behind the calls is not given here.

Tests used:
[1] = Cytotoxicity against mouse P815B cells assessed as cell viability at 10 uM by MTT assay relative to control; format: cell-based; conditions: read-out: Activity
[2] = target: Tryptophan 2,3-dioxygenase (Mus musculus) (UniProt P48776); assay: Inhibition of mouse TDO overexpressed in mouse P815B cells using L-Trp as substrate assessed as kynurenine level at 10 uM by HPLC analysis relative to control; format: cell-based
Chain of Tryptophan 2,3-dioxygenase (Mus musculus) (P48776 whole entry): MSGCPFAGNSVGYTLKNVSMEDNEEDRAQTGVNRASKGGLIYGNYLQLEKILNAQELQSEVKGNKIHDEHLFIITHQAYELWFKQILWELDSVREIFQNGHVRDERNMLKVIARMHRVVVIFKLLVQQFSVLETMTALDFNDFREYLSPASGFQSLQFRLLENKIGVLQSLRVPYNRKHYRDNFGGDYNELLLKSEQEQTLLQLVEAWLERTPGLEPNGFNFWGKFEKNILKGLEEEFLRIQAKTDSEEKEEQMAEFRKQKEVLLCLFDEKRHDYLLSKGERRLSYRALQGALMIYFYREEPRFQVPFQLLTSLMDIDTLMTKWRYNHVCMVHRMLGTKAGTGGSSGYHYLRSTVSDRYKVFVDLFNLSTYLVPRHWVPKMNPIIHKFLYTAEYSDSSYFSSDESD

[3] = target: Indoleamine 2,3-dioxygenase 1 (Mus musculus) (UniProt P28776); assay: Inhibition of mouse IDO1 overexpressed in mouse P815B cells using L-Trp as substrate assessed as kynurenine level at 10 uM by HPLC analysis relative to control; format: cell-based
Chain of Indoleamine 2,3-dioxygenase 1 (Mus musculus) (P28776 whole entry, looked up): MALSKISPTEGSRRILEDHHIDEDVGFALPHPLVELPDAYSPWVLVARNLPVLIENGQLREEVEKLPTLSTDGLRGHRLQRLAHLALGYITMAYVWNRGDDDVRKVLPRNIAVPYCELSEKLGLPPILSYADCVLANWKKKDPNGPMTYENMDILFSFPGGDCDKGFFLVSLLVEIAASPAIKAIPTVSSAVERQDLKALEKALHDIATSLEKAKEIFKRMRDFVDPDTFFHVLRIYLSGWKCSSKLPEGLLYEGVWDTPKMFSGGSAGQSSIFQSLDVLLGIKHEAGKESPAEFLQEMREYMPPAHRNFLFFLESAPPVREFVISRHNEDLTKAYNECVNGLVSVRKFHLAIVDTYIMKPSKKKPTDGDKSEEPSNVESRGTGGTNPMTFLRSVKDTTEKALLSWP

[4] = target: T1, Indoleamine 2,3-dioxygenase 1 (Homo sapiens, UniProt P14902); assay: Inhibition of human recombinant IDO1 using L-Trp as substrate assessed as kynurenine level after 30 mins
[5] = target: T1, Indoleamine 2,3-dioxygenase 1; assay: Uncompetitive inhibition of hexahistidyl-tagged human IDO1
Target sequence in this assay (P14902 whole entry): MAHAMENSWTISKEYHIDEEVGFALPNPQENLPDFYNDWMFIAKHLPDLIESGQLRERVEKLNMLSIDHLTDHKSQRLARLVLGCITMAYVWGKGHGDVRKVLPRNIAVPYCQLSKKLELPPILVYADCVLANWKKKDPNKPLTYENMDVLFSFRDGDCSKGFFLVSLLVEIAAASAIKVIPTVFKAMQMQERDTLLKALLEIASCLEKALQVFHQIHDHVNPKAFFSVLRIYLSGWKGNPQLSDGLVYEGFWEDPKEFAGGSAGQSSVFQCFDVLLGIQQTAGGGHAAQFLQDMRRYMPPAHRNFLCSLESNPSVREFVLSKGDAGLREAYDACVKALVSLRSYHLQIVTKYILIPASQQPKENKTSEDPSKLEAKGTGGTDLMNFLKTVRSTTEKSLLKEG

[6] = target: Indoleamine 2,3-dioxygenase 1 (Mus musculus) (UniProt P28776); assay: Inhibition of mouse IDO1 overexpressed in mouse P815B cells using L-Trp as substrate assessed as kynurenine level at 22 uM by HPLC analysis relative to control; format: cell-based
[7] = target: Tryptophan 2,3-dioxygenase (Mus musculus) (UniProt P48776); conditions: P815B, 22 uM
Description: Inhibition of mouse TDO overexpressed in mouse P815B cells using L-Trp as substrate assessed as kynurenine level at 22 uM by HPLC analysis relative to control

**Q.** For `COc1ccc(C2CNC3=C2C(=O)c2ccn(S(=O)(=O)c4ccc(C)cc4)c2C3=O)cc1` (configuration not stated), which viability at 10 µM [1] is on record?
**A.** > 90%

**Q.** What about the inhibition [2] of the same compound?
**A.** 2.5%

**Q.** And the inhibition [3]?
**A.** 40.2%

**Q.** What about the IC50 [4] of the same compound?
**A.** 1.8 µM

**Q.** For `COc1ccc(-c2c[nH]c3c2C(=O)c2[nH]ccc2C3=O)cc1`, which viability at 10 µM [1] is on record?
**A.** < 50%

**Q.** And the IC50 [4]?
**A.** 22.4 µM

**Q.** Which results are given for `COc1ccc(C(O)CNC2=CC(=O)c3c(ccn3S(=O)(=O)c3ccc(C)cc3)C2=O)cc1` (configuration not stated)?
**A.** viability at 10 µM [1]: > 90%; inhibition [2]: 1.1%; inhibition [3]: 37.3%; IC50 [4]: 8.8 µM

**Q.** Which results are given for `COc1ccc(-c2c[nH]c3c2C(=O)c2c(CCN)cn(S(=O)(=O)c4ccc(C)cc4)c2C3=O)cc1`?
**A.** viability at 10 µM [1]: 80%; inhibition [2]: inactive; inhibition [3]: 15.6%; IC50 [4]: 5.4 µM

**Q.** What does the source list for `COc1ccc(-c2c[nH]c3c2C(=O)c2[nH]cc4c2C3=NCC4)cc1`?
**A.** viability at 10 µM [1]: < 50%; IC50 [4]: 7.1 µM

**Q.** What does the source list for `COc1ccc(-c2c[nH]c3c2C(=O)c2ccn(S(=O)(=O)c4ccc(C)cc4)c2C3=O)cc1`?
**A.** viability at 10 µM [1]: > 90%; inhibition [2]: inactive; inhibition [3]: 19.6%; inhibition [4]: < 50%

**Q.** For `COc1ccc(C(O)CNC2=CC(=O)c3c(CCNC(=O)OC(C)(C)C)cn(S(=O)(=O)c4ccc(C)cc4)c3C2=O)cc1` (configuration not stated), which viability at 10 µM [1] is on record?
**A.** > 90%

**Q.** And the inhibition [2]?
**A.** inactive

**Q.** What about the inhibition [3] of the same compound?
**A.** 31.3%

**Q.** And the IC50 [4]?
**A.** 26.9 µM

**Q.** With `COc1ccc(C(O)CNC2=CC(=O)c3ccn(S(=O)(=O)c4ccc(C)cc4)c3C2=O)cc1` (configuration not stated) as the compound, how does the viability at 10 µM [1] read?
**A.** > 90%

**Q.** And the inhibition [2]?
**A.** inactive

**Q.** What about the inhibition [3] of the same compound?
**A.** 24.3%

**Q.** And the IC50 [4]?
**A.** 2.5 µM

**Q.** With `COc1ccc(C2CNC3=C2C(=O)c2c(c(CCN)cn2S(=O)(=O)c2ccc(C)cc2)C3=O)cc1` (configuration not stated) as the compound, how does the viability at 10 µM [1] read?
**A.** > 90%

**Q.** And the inhibition [2]?
**A.** 4.7%

**Q.** And the inhibition [3]?
**A.** 40.2%

**Q.** What about the IC50 [4] of the same compound?
**A.** 5.6 µM

**Q.** With `COc1ccc(-c2c[nH]c3c2C(=O)c2c(c(CCN)cn2S(=O)(=O)c2ccc(C)cc2)C3=O)cc1` as the compound, how does the viability at 10 µM [1] read?
**A.** > 90%

**Q.** What about the inhibition [2] of the same compound?
**A.** inactive

**Q.** What about the inhibition [3] of the same compound?
**A.** 26%

**Q.** And the IC50 [4]?
**A.** 11.9 µM

**Q.** For `COc1ccc(-c2c[nH]c3c2C2=NCCc4cn(S(=O)(=O)c5ccc(C)cc5)c(c42)C3=O)cc1`, which viability at 10 µM [1] is on record?
**A.** > 90%

**Q.** And the inhibition [2]?
**A.** 3.1%

**Q.** What about the inhibition [3] of the same compound?
**A.** 32%

**Q.** What about the IC50 [4] of the same compound?
**A.** 2.2 µM

**Q.** For `COc1ccc(-c2c[nH]c3c2C2=NCCc4c[nH]c(c42)C3=O)cc1`, which viability at 10 µM [1] is on record?
**A.** > 90%

**Q.** What about the inhibition [2] of the same compound?
**A.** inactive

**Q.** What about the inhibition [3] of the same compound?
**A.** 19.4%

**Q.** And the IC50 [4]?
**A.** 0.9 µM

**Q.** With `COc1ccc(-c2c[nH]c3c2C(=O)c2c4c(cn2S(=O)(=O)c2ccc(C)cc2)CCN=C34)cc1` as the compound, how does the viability at 10 µM [1] read?
**A.** < 50%

**Q.** What about the IC50 [4] of the same compound?
**A.** 4.2 µM

**Q.** Which results are given for `COc1ccc(C(O)CNC2=CC(=O)c3c(c(CCNC(=O)OC(C)(C)C)cn3S(=O)(=O)c3ccc(C)cc3)C2=O)cc1` (configuration not stated)?
**A.** viability at 10 µM [1]: > 90%; inhibition [2]: inactive; inhibition [3]: 17.4%; IC50 [4]: 10.1 µM

**Q.** For `COc1ccc(-c2c[nH]c3c2C(=O)c2cc[nH]c2C3=O)cc1`, which viability at 10 µM [1] is on record?
**A.** < 50%

**Q.** And the IC50 [4]?
**A.** 12.6 µM

**Q.** For `CO[C@@]12[C@H](COC(N)=O)C3=C(C(=O)C(C)=C(N)C3=O)N1C[C@@H]1N[C@@H]12` [MITOMYCIN], which Ki [5] is on record?
**A.** 25 µM

**Q.** Which results are given for `COc1ccc(C2CNC3=C2C(=O)c2c(ccn2S(=O)(=O)c2ccc(C)cc2)C3=O)cc1` (configuration not stated)?
**A.** viability at 10 µM [1]: > 90%; inhibition [2]: 3.2%; inhibition [3]: 54.2%; IC50 [4]: 5.6 µM

**Q.** Which viability at 10 µM [1] does the source give for `O=C1c2[nH]ccc2C(=O)c2c(-c3ccc(O)cc3)c[nH]c21` here?
**A.** > 90%

**Q.** And the inhibition [2]?
**A.** inactive

**Q.** And the inhibition [3]?
**A.** inactive

**Q.** And the inhibition [4]?
**A.** < 50%

**Q.** For `Cn1cc(C[C@H](N)C(=O)O)c2ccccc21` [(L)-1-METHYLTRYPTOPHAN], which inhibition [6] is on record?
**A.** 14.5%

**Q.** What about the viability at 10 µM [1] of the same compound?
**A.** > 90%

**Q.** What about the inhibition [7] of the same compound?
**A.** inactive

**Q.** For `COc1ccc(C2CNC3=C2C(=O)c2c(CCN)cn(S(=O)(=O)c4ccc(C)cc4)c2C3=O)cc1` (configuration not stated), which viability at 10 µM [1] is on record?
**A.** 83%

**Q.** And the inhibition [2]?
**A.** inactive

**Q.** And the inhibition [3]?
**A.** 26.1%

**Q.** What about the IC50 [4] of the same compound?
**A.** 2.8 µM

**Q.** For `O=C1c2[nH]cc3c2C(=NCC3)c2[nH]cc(-c3ccc(O)cc3)c21`, which viability at 10 µM [1] is on record?
**A.** > 90%

**Q.** And the inhibition [2]?
**A.** inactive

**Q.** And the inhibition [3]?
**A.** 5.3%

**Q.** And the IC50 [4]?
**A.** 7 µM
